In patent US20220387358A1, “CERAMIDE ANALOG SACLAC MODULATES SPHINGOLIPID LEVELS AND MCL-1 SPLICING TO INDUCE APOPTOSIS IN ACUTE MYELOID LEUKEMIA” (University of Virginia Patent Foundation, priority 2019, published 2022):
Where “and” joins values, the source holds several entries; their conditions need not be identical. Identical values can stand only once.

What was measured:
[1] = test system: human AML cell lines; test: Sphingolipid analysis by LC-ESI-MS/MS (S1P, total ceramide); type: cell-based; conditions: 2.5 μM, 24 hours
Protocol: Lipid extraction and analysis was done using liquid chromatography-electrospray ionization-tandem mass spectrometry (LC-ESI-MS/MS) as previously described (22). Cells were plated at 5 million cells per 6 ml and treated with SACLAC or DMSO for 24 hours. Lipids were extracted from cell pellets using an azeotrophic mix of isopropanol: water: ethyl acetate (3:1:6; v:v:v). Internal standards (50 pmol of d17 long-chain bases and C12 acylated sphingolipids) were added to samples at the onset of the extraction procedure. Extracts were separated on a Waters I-class Acquity UPLC chromatography system (Waters Corporation, Milford, Mass., United States of America). Mobile phases were (A) 60:40 water: acetonitrile and (B) 90:10 isopropanol:methanol with both mobile phases containing 5 mM ammonium formate and 0.1% formic acid. A Waters C18 CSH 2.1 mm ID×10 cm column maintained at 65° C. was used for the separation of the sphingoid bases, 1-phosphates, and acylated sphingolipids. The eluate was analyzed with an inline Waters TQ-S mass spectrometer (Waters Corporation, Milford, Mass., United States of America) using multiple reaction monitoring. All data reported are based on monoisotopic mass and are represented as pmol/mg protein.

[2] = test system: THP-1, HL60-VCR and KG1a cell lines; test: Western blot of SF3B1 and Mcl-1S/L in further cell lines; type: cell-based, human; conditions: 20 μM SACLAC; 48 hours; all three cell lines
Protocol: Cells were plated at 2.5×10^5 cells per ml in 6-well plates and treated with drug, vehicle or siRNA at the indicated doses and time points. Cells were harvested, washed with PBS and lysed prior to preparation of protein extracts for western blotting.
More particularly, cells were lysed with RIPA buffer (#R0278, Sigma, St. Louis, Mo., United States of America) containing phosphatase inhibitor cocktails 2 and 3 (Sigma #P5726, #P0044) and protease inhibitor cocktail (#P8340, Sigma, St. Louis, Mo., United States of America). Protein was quantified using a bicinchoninic acid (BCA) protein assay kit (#23225, Pierce, Waltham, Mass., United States of America). Samples were resolved on a Bolt 4-12% SDS-PAGE gel (#NW00082, ThermoFisher Scientific, Waltham, Mass., United States of America) and transferred to PVDF membrane (#170-4274, Bio-Rad Laboratories, Hercules, Calif., United States of America). Antibodies were obtained from Cell Signaling Technology (Danvers, Mass., United States of America) unless indicated otherwise. […] Quantification was done using Bio-Rad ImageLab 6.0.1 software (Bio-Rad Laboratories, Hercules, Calif., United States of America). For quantification, bands were normalized to β-actin as a loading control.

[3] = test system: normal CD34+ cells; test: Cell viability of normal samples ([…]-GLO); type: cell-based; conditions: Homo sapiens; CD34+ (n=4); 24 hours
From the text: Healthy donor samples: PBMCs from healthy donors were enriched using the Ficoll-Paque gradient separation method. CD34+PBMCs mobilized with G-CSF were obtained from the University of Virginia Health System Blood Bank (Charlottesville, Va., United States of America). CD34+ cells were isolated from PBMCs with a Human CD34 MicroBead Kit (#130-046, Miltenyi Biotec, Bergisch Gladbach, Germany) using the autoMACS Pro Separator (#130-092-545, Miltenyi Biotec, Bergisch Gladbach, Germany). For cell viability, cell lines were plated at 2.5×10^4 cells per well in a 96-well plate and treated with […] or DMSO vehicle (0.4% of total volume) for the indicated time points and doses. […] Conversion of MTS to formazan product was measured by absorbance at 490 nm using a BioTek Cytation 3 plate reader (BioTeck, Winooski, Vt., United States of America). Absorbance was normalized to DMSO control, which was defined as 100% viability. […] After 15 minutes, luminescence was read on a BioTek Cytation 3 plate reader (BioTek, Winooski, Vt., United States of America). Absorbance was normalized to DMSO control, which was defined as 100% viability.

[4] = test system: OCI-AML2 cells; test: Caspase 3/7 activation; type: cell-based, human; conditions: increasing doses; 24 hours
Protocol: (§1) Apoptosis in cell lines was assessed after treating 2.5×10^5 cells per ml with drug or vehicle in a 48-well plate for the indicated time points and doses. Primary human AML cells were pre-incubated with SFEM for 48 hours before plating 2×10^5 cells in 24-well plates for the indicated times point and doses. Samples were stained using the Muse Annexin V & Dead Cell Kit (Millipore #MCH100105). Change in mitochondrial membrane potential in cell lines was measured with the Muse® MitoPotential Kit (#MCH100110, MilliporeSigma, Burlington, Mass., United States of America). Caspase activation was measured using the Muse® Caspase 3/7 Assay Kit (#MCH100108, MilliporeSigma, Burlington, Mass., United States of America). For rescue experiments, cells were plated at 2.5×10^4 well in a 96-well plate 24 hours after electroporation. Cells were treated with DMSO or […] for 48 hours and apoptosis was detected as stated above. All kits were used according to manufacturer's protocol. Cells were then analyzed using the Muse® Cell Analyzer (MilliporeSigma, Burlington, Massachusetts, United States of America) (35,36). Experiments included positive and negative controls for proper analysis.

[5] = test system: OCI-AML2 cells; test: Mitochondrial membrane potential (Muse MitoPotential Kit); type: cell-based, human; conditions: SACLAC 5 μM; time course
Protocol: as §1

## CCCCCCCCCCCCCCC[C@@H](O)[C@H](CO)NC(=O)CCl [SACLAC, N-[(2S,3R)-1,3-dihydroxyoctadecan-2-yl]2-chloroacetamide]
[1]; HL-60/VCR, THP-1, OCI-AML2
  increase in total ceramide: 2.5 fold and 2- to 3 fold
[1]; HL-60/VCR
  S1P content reduced by: 87%
[1]; OCI-AML2
  S1P levels: below the limit of detection
[1]; THP-1
  S1P levels: below the limit of detection
[2]
  SF3B1 levels: reduced
  ratio of Mcl-1S/L: increased
[3]
  EC50: 4 µM
[4]
  caspase 3/7 activation: dose-dependent caspase activation
[5]
  loss of mitochondrial membrane potential: occurred in parallel with positive staining for the apoptosis marker annexin V
